We go through 3 compounds from ChEMBL document CHEMBL1131792, “Structure-based design of a non-peptidic antagonist of the SH2 domain of GRB2” (Bioorg Med Chem Lett, 1999).

For test [1], the target named is T1, Growth factor receptor-bound protein 2 (Homo sapiens, UniProt P62993). Nature of the test: Inhibition of Grb2 SH2 domain binding to phospho-EGF receptor intracellular C-terminal domain.
Target sequence in this assay (P62993 whole entry, the tested form may be a part): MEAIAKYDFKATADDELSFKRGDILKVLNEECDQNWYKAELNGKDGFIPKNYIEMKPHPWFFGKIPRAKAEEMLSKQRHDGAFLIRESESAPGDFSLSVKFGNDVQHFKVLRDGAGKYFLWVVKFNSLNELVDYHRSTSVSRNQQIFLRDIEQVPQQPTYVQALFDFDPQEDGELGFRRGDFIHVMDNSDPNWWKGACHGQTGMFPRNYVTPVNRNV
Test [2] deals with T1, Growth factor receptor-bound protein 2. The test is described as follows: Inhibition of Grb2 SH2 domain binding to phospho-EGF receptor intracellular C-terminal domain at 5 mM.
Target sequence in this assay (P62993 whole entry, looked up, the tested form may be a part): as the sequence (P62993 whole entry, the tested form may be a part) above

By IC50 is commonly meant the concentration that inhibits the measured activity by half. `Nc1ccnc(NCCc2ccc(OP(=O)(O)O)cc2)n1` showed a half-inhibitory concentration (IC50) in test [1] of over 200 µM.
In test [1], `Cc1sc(-c2nccc(N)n2)nc1-c1ccc(OP(=O)(O)O)cc1` had an IC50 of 25.9 µM.
For orientation: inhibition means the percentage by which the read-out fell short of the control. For `O=P(O)(O)Oc1ccccc1`, the inhibition in test [2] turned out to be 55%.
